Data as given in article PMC6271529, “Studies on the Anticonvulsant Activity and Influence on GABA-ergic Neurotransmission of 1,2,4-Triazole-3-thione-Based Compounds” (Molecules, 2014).
Entries after “also recorded” stand apart in the source; their conditions may differ. Where two headings read alike, the source gives them in different places.

Tests used:
[1] = test system: benzodiazepine (BDZ)-binding sites; assay: Radioligand binding assay, [3H]flunitrazepam, rat cerebral cortex; settings: compound 1 × 10^−6 M;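 further: low percentages indicate weak binding of the compound to the site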
Protocol: (§1) Binding experiments were conducted in 96-well microplates in a total volume of 200 μL of appropriate buffer. The reaction mixture included 50 μL solution of test compound, 50 μL of radioligand, and […] the tissue suspension. Rat cerebral cortex was used for each receptor. The radioactivity was measured in MicroBeta TriLux 1450-liquid scintillation counter (PerkinElmer, Waltham, MA, USA). Radioligand binding data were analyzed using iterative curve fitting routines (GraphPAD/Prism, Version 3.0, San Diego, CA, USA). Ki values were calculated from the Cheng and Prusoff equation [36].

GABAA receptors = assay: Radioligand binding assay, [3H]muscimol, rat cerebral cortex; settings: compound 1 × 10^−6 M, [3H]muscimol, rat cerebral cortex;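 further: low percentages indicate weak binding of the compound to the receptor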
Protocol: as §1, with “The radioactivity was measured in MicroBeta TriLux 1450-liquid scintillation counter (PerkinElmer, Waltham, MA, USA).” left out

[2] = test system: maximal electroshock-induced seizures; assay: Maximal electroshock-induced seizure (MES) test in mice; type: in vivo, mouse; settings: for p/t, number of animals protected against MES-induced seizures / number tested / responders at 300 mg/kg: 300 mg/kg i.p.; for responders at 300 mg/kg / ED50: Mus musculus, ip; for responders at 300 mg/kg: read-out: percent of animals protected against MES-induced seizures; for PI (TD50/ED50): protective index; for onset of action: significant protection as early as 15 min after parenteral administration, MES
Protocol: Additionally, all efforts were made to minimize animal suffering and to use only the number of animals necessary to produce reliable scientific data.
In the initial stage of the study, groups of eight mice were supplied with the compounds (administered intraperitoneally) in a dose of 300 mg/kg and then exposed to electrical impulse at fixed intervals (15, 30, 60, 120 min).
Each mouse was used only once.
Fresh drug solutions were prepared on each day of experimentation and administered at 15, 30, 60 and 120 min. before the initiation of maximal electroconvulsions. Electroconvulsions were produced by a current (0.2 s stimulus duration; 500 V, 50 Hz, fixed current intensity of 25 mA) delivered via ear-clip electrodes by a Rodent Shocker generator (constant-current stimulator Type 221, Hugo Sachs Elektronik, Freiburg, Germany). The criterion for the occurrence of seizure activity was the tonic hind limb extension. The animals were administered with a constant dose of 300 mg/kg of each of the examined compounds and were subjected to MES-induced seizures. […] The animals were administered with different doses of the tested compounds so as to obtain a variable percentage of protection against maximal electroconvulsions, allowing the construction of dose-response relationship lines for each examined compound administered i.p. at various pretreatment times, according to Litchfield and Wilcoxon. Each ED50 value represents the dose of the studied compounds that is required to protect 50% of the animals tested against MES-induced seizures.

[3] = test system: motor performance in mice; assay: Chimney test (motor performance impairment, acute adverse effects); settings: i.p.
Protocol: Adult male Swiss mice (weighing 22–26 g) that were kept in colony cages with free access to food and tap water, housed under standardized housing conditions, were used. After seven days of adaptation to laboratory conditions, the animals were randomly assigned to experimental groups each comprised of eight mice. Each mouse was used only once. Procedures involving animals and their care were conducted in accordance with current European Community and Polish legislation on animal experimentation. The experimental protocols and procedures described in this manuscript were approved by the First Local Ethics Committee at the Medical University in Lublin and the Second Local Ethics Committee at the University of Life Sciences in Lublin and complied with the European Communities Council Directive of 24 November 1986 (86/609/EEC).
In this test, the animals had to climb backwards up a plastic tube (3 cm inner diameter, 30 cm length), and motor performance impairment was indicated by the inability of the mice to climb backward up the transparent tube within 60 s. […] To evaluate each TD50 value, at least four groups of animals (each group consisted of eight mice) injected with various doses of the appropriate compound were challenged with the chimney test. A dose-response relationship line was calculated on the basis of the percentage of mice showing motor deficits by means of the log-probit method according to Litchfield and Wilcoxon.

[4] = pretreatment time 120 min, mice
[5] = 0.25 h, pretreatment time 15 min, mice
[6] = 0.5 h, pretreatment time 30 min, mice
[7] = 1 h, pretreatment time 60 min, mice
[8] = 2 h, pretreatment time 120 min, mice
[9] = pretreatment time 15 min, mice, read-out: ED50 ± S.E. (MES test)
[10] = pretreatment time 30 min, mice, read-out: ED50 ± S.E. (MES test)
[11] = pretreatment time 60 min, mice, read-out: ED50 ± S.E. (MES test)
[12] = pretreatment time 120 min, mice, read-out: ED50 ± S.E. (MES test)
[13] = chimney TD50 / MES ED50, pretreatment time 15 min
[14] = chimney TD50 / MES ED50, pretreatment time 30 min
[15] = chimney TD50 / MES ED50, pretreatment time 60 min
[16] = chimney TD50 / MES ED50, pretreatment time 120 min

SMILES | Percent of Specific Binding, BDZ [1] | Percent of Specific Binding, GABAA (GABAA receptors) | p/t, number of animals protected against MES-induced seizures / number tested ([2]; pretreatment time 15 min, mice) | p/t, number of animals protected against MES-induced seizures / number tested ([2]; pretreatment time 30 min, mice) | p/t, number of animals protected against MES-induced seizures / number tested ([2]; pretreatment time 60 min, mice) | p/t, number of animals protected against MES-induced seizures / number tested [2, 4] | responders at 300 mg/kg [2, 5] | responders at 300 mg/kg [2, 6] | responders at 300 mg/kg [2, 7] | responders at 300 mg/kg [2, 8] | melting point | ED50 [2, 9] | ED50 [2, 10] | ED50 [2, 11] | ED50 [2, 12] | PI (TD50/ED50) [2, 13] | PI (TD50/ED50) [2, 14] | PI (TD50/ED50) [2, 15] | PI (TD50/ED50) [2, 16] | onset of action ([2]; mice) | also measured
Fc1ccccc1-n1c(-c2cccc(Cl)c2)n[nH]c1=S [Compound 1a, 5-(3-Chlorophenyl)-4-(2-fluorophenyl)-2,4-dihydro-3H-1,2,4-triazole-3-thione] | 14% | 8% | 0/8 | 0/8 | 1/8 | 1/8 | 0% | 0% | 12.5% | 12.5% | 170 to 171 °C | – | – | – | – | – | – | – | – | – | –
Fc1ccccc1-n1c(-c2ccc(Cl)cc2)n[nH]c1=S [Compound 12a, 5-(4-Chlorophenyl)-4-(2-fluorophenyl)-2,4-dihydro-3H-1,2,4-triazole-3-thione] | 18% | 13% | 6/8 | 6/8 | 7/8 | 7/8 | 75% | 75% | 87.5% | 87.5% | 240 to 242 °C | 208 ± 25.3 mg/kg | 186 ± 24.6 mg/kg | 218 ± 21.7 mg/kg | 209 ± 27.3 mg/kg | 2.6 | 2.7 | 1.9 | 2.3 | quick onset of action | ED50 ([2]; pretreatment times 15, 30, 60, 120 min, read-out: ED50 (MES), range over pretreatment times): 186 to 218 mg/kg
S=c1[nH]nc(-c2ccc(Cl)cc2)n1-c1ccccc1Br [Compound 15a, 4-(2-Bromophenyl)-5-(4-chlorophenyl)-2,4-dihydro-3H-1,2,4-triazole-3-thione] | 21% | 8% | 6/8 | 8/8 | 8/8 | 7/8 | 75% | 100% | 100% | 87.5% | 250 to 252 °C | 183 ± 25.1 mg/kg | 105 ± 16.5 mg/kg | 137 ± 19.9 mg/kg | 176 ± 25 mg/kg | 1.5 | 2.4 | 1.8 | 1.4 | quick onset of action | –
CSc1ccc(-n2c(-c3ccc(Cl)cc3)n[nH]c2=S)cc1 [Compound 17a, 5-(4-Chlorophenyl)-4-[4-(methylsulfanyl)phenyl]-2,4-dihydro-3H-1,2,4-triazole-3-thione] | 6% | 21% | 0/8 | 0/8 | 1/8 | 0/8 | 0% | 0% | 12.5% | 0% | 214 to 216 °C | – | – | – | – | – | – | – | – | – | –
Cc1ccc(-n2c(-c3cccc(Cl)c3)nn(CN3CCOCC3)c2=S)cc1 [Compound 22a, 5-(3-Chlorophenyl)-4-(4-methylphenyl)-2-(morpholin-4-ylmethyl)-2,4-dihydro-3H-1,2,4-triazole-3-thione] | 12% | 6% | 4/8 | 5/8 | 3/8 | 2/8 | 50% | 62.5% | 37.5% | 25% | – | 224 ± 20.9 mg/kg | 228 ± 14.7 mg/kg | 274 ± 10.9 mg/kg | 448 ± 21.4 mg/kg | 1.5 | 1.4 | 1.6 | 1.0 | quick onset of action | anticonvulsant activity (in words) ([2]; MES test, mice): slightly weaker than that of valproate; also recorded: weak anticonvulsant activity
Cc1ccc(-n2c(-c3cccc(Cl)c3)nn(CN3CCN(c4ccccc4)CC3)c2=S)cc1 [Compound 23a, 5-(3-Chlorophenyl)-4-(4-methylphenyl)-2-[(4-phenylpiperazin-1-yl)methyl]-2,4-dihydro-3H-1,2,4-triazole-3-thione] | 7% | 23% | 0/8 | 0/8 | 0/8 | 0/8 | 0% | 0% | 0% | 0% | – | – | – | – | – | – | – | – | – | – | –
Cc1ccc(-n2c(-c3cccc(Cl)c3)nn(CN3CCN(c4ccc(F)cc4)CC3)c2=S)cc1 [Compound 24a, 5-(3-Chlorophenyl)-2-{[4-(4-fluorophenyl)piperazin-1-yl]methyl}-4-(4-methylphenyl)-2,4-dihydro-3H-1,2,4-triazole-3-thione] | 13% | 21% | 0/8 | 0/8 | 0/8 | 0/8 | 0% | 0% | 0% | 0% | – | – | – | – | – | – | – | – | – | – | –
CCCC(CCC)C(=O)O [Valproate, Magnesium valproate] | – | – | – | – | – | – | – | – | – | – | – | – | 217 ± 9.4 mg/kg | 218 ± 18.9 mg/kg | 247 ± 21.6 mg/kg | – | – | – | – | – | TD50 ± S.E. (chimney test) ([3]; pretreatment time 15 min): 363.3 ± 14.2 mg/kg; TD50 ± S.E. (chimney test) ([3]; pretreatment time 30 min): 372.9 ± 16.9 mg/kg; TD50 ± S.E. (chimney test) ([3]; pretreatment time 60 min): 417.3 ± 9.5 mg/kg; TD50 ± S.E. (chimney test) ([3]; pretreatment time 120 min): 512.3 ± 20.2 mg/kg
